Experimental data taken from patent publication EP0329053A1, “Choline esters of glycerophosphoric acids” (MAGIS FARMACEUTICI S.p.A., priority 1988, dated 1989).

Assay: Acute toxicity by the Weill method
Settings: in vivo, mouse, read-out: LD₅₀
Method: The acute toxicity of the compounds according to the invention was studied on the mouse by the Weill method (Weill C.S. Biomed. J. 8 249 (1952)). […] For the compound of formula (I) wherein n=1 and R, R¹ equal to H, the LD₅₀ is higher than 2000 mg/kg.

SMILES: C[N+](C)(C)CCOP(=O)([O-])OP(=O)(O)OCC(O)CO (stereo not drawn) [choline α-glyceryl disphosphate]
- LD50: > 2000 mg/kg
